# From paper PMC2363406 (British Journal of Cancer, 2000)
# Values joined by “and” are separate entries in the source; they are usually repeats but may differ in a detail not shown here. Identical values can stand only once. “Also recorded” adds a separate entry of the source. Counter-ions that a name gives are not always drawn. Like-named read-outs stand apart in the source and are kept apart here.
# Key:
# cytochrome P450 = details: cited from earlier work; for effect on the metabolism of paclitaxel: 1997; for metabolic interactions with paclitaxel: paclitaxel pre-medication drugs, 1995, Schlichenmyer et al
# HNX22B = assay: In vitro growth inhibition (SRB assay), single agents and nolatrexed/paclitaxel combination (Chou and Talalay combination index); type: cell-based
# HNX14C = assay: as above; type: cell-based
# [1] = Clinical plasma pharmacokinetics of nolatrexed (HPLC, non-compartmental analysis); type: in vivo, human; details: for half-life: human, plasma, iv, Nolatrexed Half-life; for half-life / Nolatrexed Half-life / Nolatrexed Clearance: nolatrexed 500 mg m-2 day-1 120-h i.v. infusion
# CYP2C8 = target: T1, CYP2C8 (Homo sapiens, UniProt P10632); assay: Inhibition of paclitaxel metabolism to 6-hydroxypaclitaxel in pooled human liver microsomes; type: in vitro ADME
# T1 construct: Pooled human liver microsomes (1 mg protein per ml) were incubated with paclitaxel; tissue Keystone Skin Bank Exton, PA, USA; host or cells: pooled human liver microsomes from ten individual livers
# T1 sequence (P10632 1-490): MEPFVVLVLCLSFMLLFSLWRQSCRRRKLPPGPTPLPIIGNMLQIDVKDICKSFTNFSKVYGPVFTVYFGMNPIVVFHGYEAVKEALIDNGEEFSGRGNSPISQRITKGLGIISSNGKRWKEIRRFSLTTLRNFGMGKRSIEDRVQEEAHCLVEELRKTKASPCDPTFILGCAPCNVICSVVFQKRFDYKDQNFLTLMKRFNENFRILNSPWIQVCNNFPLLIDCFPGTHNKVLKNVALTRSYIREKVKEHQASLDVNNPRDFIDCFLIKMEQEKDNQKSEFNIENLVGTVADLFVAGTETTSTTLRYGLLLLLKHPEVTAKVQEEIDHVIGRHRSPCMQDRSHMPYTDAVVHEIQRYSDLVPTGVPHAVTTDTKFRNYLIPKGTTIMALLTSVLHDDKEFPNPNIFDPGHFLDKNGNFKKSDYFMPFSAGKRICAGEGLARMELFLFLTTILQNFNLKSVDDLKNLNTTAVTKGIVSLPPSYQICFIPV
# [2] = Clinical plasma pharmacokinetics of paclitaxel and its metabolites (HPLC, non-compartmental analysis); details: for AUC / half-life: human
# [3] = single agent, 135 mg m-2, cited from earlier work
# [4] = human liver preparations and patients, ref Harris et al, 1994, Kuhn et al
# [5] = schedule 1, patients 3, 6, 9 in order
# [6] = schedule 2, patients 5, 7, 10 in order
# [7] = schedule 3, patients 2, 4, 8 in order
# [8] = in vitro studies, ref Jamis-Dow et al
# [9] = 3-h paclitaxel exposure, single agent, mean (s.d.) n = 3
# [10] = schedule 1, paclitaxel 80 mg m-2 3-h i.v., course 1, patients 3, 6, 9 in order
# [11] = schedule 2, paclitaxel 80 mg m-2
# [12] = schedule 2, paclitaxel 80 mg m-2 3-h i.v., course 1, patients 5, 7, 10 in order
smiles,measurement,setting,value
CCC1(c2ccccc2)C(=O)NC(=O)NC1=O [phenobarbitone],effect on the metabolism of paclitaxel,cytochrome P450; [4],increase the metabolism of paclitaxel
"Cc1ccc2nc(N)[nH]c(=O)c2c1Sc1ccncc1 [nolatrexed, 3,4-dihydro-2-amino-6-methyl-4-oxo-5-(4-pyridylthio)-quinazolone dihydrochloride]",IC50,HNX22B; 120 h,660 nM
same,IC50,HNX14C; 120 h,1120 nM
same,half-life,[1]; [5],66 min
same,half-life,[1]; [6],118 min
same,half-life,[1]; [7],97 min
same,Nolatrexed Half-life,[1]; [5],113 min and 128 min
same,Nolatrexed Clearance,[1]; [6],73 ml min-1 m-2 and 108 ml min-1 m-2 and 91 ml min-1 m-2
same,Nolatrexed Half-life,[1]; [6],95 min and 154 min
same,Nolatrexed Clearance,[1]; [7],99 ml min-1 m-2 and 62 ml min-1 m-2 and 79 ml min-1 m-2
same,Nolatrexed Half-life,[1]; [7],132 min and 114 min
same,effect of schedule on the pharmacokinetics of nolatrexed,[1]; three schedules with paclitaxel,no effect of schedule; also recorded: unaffected by schedule
same,inhibition of paclitaxel metabolism,"CYP2C8; human liver microsomes, statement in words",being an inhibitor of the major routes of metabolism of paclitaxel
same,Ki,"CYP2C8; read-out: Ki, inhibition of metabolism of paclitaxel to its 6-hydroxy-metabolite",640 nM
OC(Cn1cncn1)(Cn1cncn1)c1ccc(F)cc1F [fluconazole],effect on the metabolism of paclitaxel,cytochrome P450; [8],inhibit the metabolism of paclitaxel
CN(C)CCC(c1ccc(Cl)cc1)c1ccccn1 (stereo not drawn) [chlorpheniramine],metabolic interactions with paclitaxel,cytochrome P450; ref Jamis-Dow et al,no metabolic interactions
CN/C(=N/CCSCc1nc[nH]c1C)NC#N [cimetidine],metabolic interactions with paclitaxel,cytochrome P450; ref Jamis-Dow et al,no metabolic interactions
O=C1NC(=O)C(c2ccccc2)(c2ccccc2)N1 [phenytoin],effect on the metabolism of paclitaxel,cytochrome P450; [4],increase the metabolism of paclitaxel
C[C@@H]1C[C@H]2[C@@H]3CCC4=CC(=O)C=C[C@]4(C)[C@@]3(F)[C@@H](O)C[C@]2(C)[C@@]1(O)C(=O)CO [dexamethasone],metabolic interactions with paclitaxel,cytochrome P450; ref Jamis-Dow et al,no metabolic interactions
CC(=O)O[C@H]1C(=O)[C@@]2(C)[C@H]([C@H](OC(=O)c3ccccc3)[C@]3(O)C[C@H](OC(=O)[C@H](O)[C@@H](NC(=O)c4ccccc4)c4ccccc4)C(C)=C1C3(C)C)[C@]1(OC(C)=O)CO[C@@H]1C[C@@H]2O [paclitaxel],IC50,HNX22B; [9],38 nM
same,IC50,HNX14C; [9],31 nM
same,AUC,"[2]; plasma, intravenous, 80 mg, AUCs of paclitaxel, schedules 1 and 3 (except patient 8), paclitaxel 80 mg m-2",3 to 4.85 µM·h
same,AUC,"[2]; plasma, intravenous, 135 mg m-2, Paclitaxel AUC, patient 8, single-agent paclitaxel 135 mg m-2 as 3-h infusion, no nolatrexed",20.6 µM·h
same,half-life,"[2]; plasma, intravenous, 135 mg m-2, Paclitaxel Half-life, patient 8, single-agent paclitaxel 135 mg m-2 as 3-h infusion, no nolatrexed",360 min
same,AUC,"[2]; plasma, iv, 80 mg, Paclitaxel AUC, schedule 1, paclitaxel 80 mg m-2 3-h i.v., course 1, patients 3, 6, 9 in order",3.78 µM·h
same,AUC,"[2]; plasma, iv, 80 mg, Paclitaxel AUC, schedule 2, paclitaxel 80 mg m-2 3-h i.v., course 1, patients 5, 7, 10 in order",9.42 µM·h
same,half-life,"[2]; plasma, iv, 80 mg, Paclitaxel Half-life, schedule 1, paclitaxel 80 mg m-2 3-h i.v., course 1, patients 3, 6, 9 in order",421 min
same,half-life,"[2]; plasma, iv, 80 mg, Paclitaxel Half-life, schedule 2, paclitaxel 80 mg m-2 3-h i.v., course 1, patients 5, 7, 10 in order",413 min
same,half-life,"[2]; plasma, iv, 80 mg, Paclitaxel Half-life, schedule 3, paclitaxel 80 mg m-2 3-h i.v., course 1, patients 2, 4, 8 in order",365 min
same,Paclitaxel Clearance,"[2]; patient 8, single-agent paclitaxel 135 mg m-2 as 3-h infusion, no nolatrexed",127 ml min-1 m-2
same,clearance of paclitaxel,"[2]; patients on schedules 1 and 3 (with the exception of patient 8), paclitaxel 80 mg m-2",322–520 ml min-1 m-2 and 322-520 ml min-1 m-2
same,Paclitaxel Clearance,[2]; [10],376 ml min-1 m-2 and 322 ml min-1 m-2 and 411 ml min-1 m-2
same,Paclitaxel Half-life,[2]; [10],442 min and 507 min
same,time above plasma paclitaxel concentration of 0.05 M,[2]; schedule 2,16 to 27 h
same,time above plasma paclitaxel concentration of 0.1 M,[2]; schedule 2,10 to 18 h
same,Paclitaxel Peak conc.,"[2]; schedule 2 (nolatrexed 0-120 h, paclitaxel 48-51 h), paclitaxel 80 mg m-2 3-h i.v., plasma, course 1, patients 5, 7, 10 in order",1.66-1.93 M
same,areas under the curve of paclitaxel,[2]; [11],392 to 565 µM/min
same,peak plasma concentrations of paclitaxel,[2]; [11],1.66 to 1.93 µM
same,Paclitaxel Clearance,[2]; [12],165–238 ml min-1 m-2 and 165 ml min-1 m-2 and 238 ml min-1 m-2 and 171 ml min-1 m-2 and 165-238 ml min-1 m-2
same,Paclitaxel Half-life,[2]; [12],381 min and 416 min
same,Paclitaxel AUC,"[2]; schedule 2, paclitaxel 80 mg m-2 3-h i.v., plasma, course 1, patients 5, 7, 10 in order",392 to 565 M/min
same,Paclitaxel Half-life,"[2]; schedule 3, paclitaxel 80 mg m-2 3-h i.v., course 1, patients 2, 4, 8 in order",505 min and 381 min
same,time above plasma paclitaxel concentration of 0.05 M,[2]; schedules 1 and 3,8 to 18 h
same,time above plasma paclitaxel concentration of 0.1 M,[2]; schedules 1 and 3,5 to 8 h
same,peak plasma concentrations of paclitaxel,"[2]; schedules 1 and 3 (except patient 8), paclitaxel 80 mg m-2",860000 to 1.32e+06 µM
same,Paclitaxel Clearance,"[3]; ref Gianni, 1995",247 ml min-1 m-2
same,Paclitaxel Clearance,"[3]; ref Keung, 1993",295 ml min-1 m-2
CC(=O)N1CCN(c2ccc(OCC3COC(Cn4ccnc4)(c4ccc(Cl)cc4Cl)O3)cc2)CC1 (stereo not drawn) [ketoconazole],effect on the metabolism of paclitaxel,cytochrome P450; [8],inhibit the metabolism of paclitaxel
